Reference: US20240270762A1, “PENICILLIN-BINDING PROTEIN INHIBITORS” (priority 2021, published 2024)
Values after ≈ are worked out from the molar mass of the structure shown. Like-named read-outs stand apart in the source and are kept apart here.

Key:
[1] = system: P. aeruginosa (ΔmexAB-oprM); assay: Broth microdilution MIC in iron-depleted CAMHB (IDM); assay type: cell-based; details: Pseudomonas aeruginosa; iron-depleted CAMHB (IDM); […]; read-out: Minimum inhibitory concentration, P. aeruginosa ΔmexAB-oprM
[2] = system: A. baumannii CDC-0083; assay: microbe, parasite or virus in culture; assay type: cell-based; details: Acinetobacter baumannii, CDC0083, read-out: MIC, A. baumannii CDC-0083
[3] = system: N. gonorrhoeae WHO X; assay: Liquid broth MIC in Fastidious broth; details: Neisseria gonorrhoeae
[4] = system: B. thailandensis ATCC 700388; assay: microbe, parasite or virus in culture; assay type: cell-based; details: Burkholderia thailandensis, ATCC700388, read-out: Minimum inhibitory concentration (MIC), B. thailandensis ATCC 700388
[5] = target: T1, PBP1a from Acinetobacter baumannii (ATCC 19606) (Acinetobacter baumannii, UniProt A0ABX6CK30); assay: Bocillin-FL fluorescence polarization competition binding, A. baumannii PBP1a; details: fluorescence polarization competition binding assay using Bocillin-FL; read-out: A. baumannii PBP1a Potency
T1 sequence (A0ABX6CK30 1-851): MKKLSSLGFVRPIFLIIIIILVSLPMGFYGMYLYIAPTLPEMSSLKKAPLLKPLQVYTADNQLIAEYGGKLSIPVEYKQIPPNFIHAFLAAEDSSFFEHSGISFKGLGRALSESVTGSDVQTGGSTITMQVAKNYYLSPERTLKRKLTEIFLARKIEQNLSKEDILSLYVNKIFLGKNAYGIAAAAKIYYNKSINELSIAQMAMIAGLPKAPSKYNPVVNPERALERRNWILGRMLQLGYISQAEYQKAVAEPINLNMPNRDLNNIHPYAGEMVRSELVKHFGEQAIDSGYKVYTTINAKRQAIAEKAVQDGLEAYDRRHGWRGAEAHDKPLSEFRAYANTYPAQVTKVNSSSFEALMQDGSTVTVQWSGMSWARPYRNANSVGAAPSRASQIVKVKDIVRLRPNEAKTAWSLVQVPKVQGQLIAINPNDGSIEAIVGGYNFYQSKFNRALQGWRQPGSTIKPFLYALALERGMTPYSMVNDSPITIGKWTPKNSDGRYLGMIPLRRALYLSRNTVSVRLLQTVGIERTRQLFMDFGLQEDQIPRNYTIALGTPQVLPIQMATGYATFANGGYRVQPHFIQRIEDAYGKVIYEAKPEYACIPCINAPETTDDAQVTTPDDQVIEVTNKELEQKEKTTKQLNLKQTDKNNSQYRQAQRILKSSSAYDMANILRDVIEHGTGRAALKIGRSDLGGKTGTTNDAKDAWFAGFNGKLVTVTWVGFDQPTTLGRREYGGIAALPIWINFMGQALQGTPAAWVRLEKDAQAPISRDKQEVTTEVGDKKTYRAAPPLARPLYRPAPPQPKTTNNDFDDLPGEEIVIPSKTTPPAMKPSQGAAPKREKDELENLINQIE
In short: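 Purified PBPs pre-incubated with inhibitor (E. coli PBP3 1.5 μM, 30 min; P. aeruginosa PBP3 0.75 μM, A. baumannii PBP1a 1 μM and PBP3 0.2 μM, 15 min), then Bocillin-FL 0.1 μM (0.05 μM for PBP1a) added; FP read up to 60 min. EC50 = concentration halving bound Bocillin-FL.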

[6] = system: N. gonorrhoeae ATCC 49226; assay: Liquid broth MIC in Fastidious broth; details: Neisseria gonorrhoeae
[7] = system: P. aeruginosa ATCC 35151; assay: microbe, parasite or virus in culture; assay type: cell-based; details: Pseudomonas aeruginosa, ATCC35151, read-out: Minimum inhibitory concentration, P. aeruginosa ATCC 35151
[8] = system: N. gonorrhoeae WHO Q; assay: Liquid broth MIC in Fastidious broth; details: Neisseria gonorrhoeae
[9] = read-out: Minimum Inhibitory Concentration (MIC), N. gonorrhoeae WHO X
[10] = ATCC49226, read-out: Minimum Inhibitory Concentration (MIC), N. gonorrhoeae ATCC 49226
[11] = read-out: Minimum Inhibitory Concentration (MIC), N. gonorrhoeae WHO Q
[12] = read-out: Minimum Inhibitory Concentration, WHO X
[13] = ATCC49226, read-out: Minimum Inhibitory Concentration, ATCC 49226
[14] = read-out: Minimum Inhibitory Concentration, WHO Q

Row | SMILES | MIC [1] [mg/L] | MIC [2] [mg/L] | MIC [3, 9] [mg/L] | MIC [4] [mg/L] | IC50 [5] [µM] | MIC [6, 10] [mg/L] | MIC [7] [mg/L] | MIC [8, 11] [mg/L] | MIC [3, 12] [mg/L] | MIC [6, 13] [mg/L] | MIC [8, 14] [mg/L]
1 | O=C(O)c1c(F)ccc2c1OB(O)[C@@H](NC(=O)C(NC(=O)N1CCN(CCCNC(=O)[C@@H]3CCCN3)C(=O)C1=O)c1cc(F)c(O)c(O)c1Cl)C2 (stereo partly drawn) [Example 212, (3R)-3-(2-(2-chloro-5-fluoro-3,4-dihydroxyphenyl)-2-(2,3-dioxo-4-(3-((S)-pyrrolidine-2-carboxamido)propyl)piperazine-1-carboxamido)acetamido)-7-fluoro-2-hydroxy-3,4-dihydro-2H-benzo[e][1,2]oxaborinine-8-carboxylic acid] | < 1 | 32 to 64 (≈ 43.4 to 86.9 µM) | > 64 | 2 to 4 (≈ 2.71 to 5.43 µM) | > 250 | 16 to 32 (≈ 21.7 to 43.4 µM) | < 1 | > 64 | – | – | –
2 | CN(CCN1CCN(C(=O)NC(C(=O)N[C@H]2Cc3ccc(F)c(C(=O)O)c3OB2O)c2cc(F)c(O)c(O)c2Cl)C(=O)C1=O)S(=O)(=O)c1cccc(C(N)=O)c1 (stereo partly drawn) [Example 224, (3R)-3-(2-(4-(2-((3-carbamoyl-N-methylphenyl)sulfonamido)ethyl)-2,3-dioxopiperazine-1-carboxamido)-2-(2-chloro-5-fluoro-3,4-dihydroxyphenyl)acetamido)-7-fluoro-2-hydroxy-3,4-dihydro-2H-benzo[e][1,2]oxaborinine-8-carboxylic acid] | < 1 | 2 to 4 (≈ 2.43 to 4.86 µM) | > 64 | 2 to 4 (≈ 2.43 to 4.86 µM) | > 250 | 16 to 32 (≈ 19.4 to 38.9 µM) | < 1 | > 64 | – | – | –
3 | O=C(CN1CCN(C(=O)NC(C(=O)N[C@H]2Cc3ccc(F)c(C(=O)O)c3OB2O)c2cc(F)c(O)c(O)c2Cl)C(=O)C1=O)NCc1ccc(O)cc1 (stereo partly drawn) [Example 236, (3R)-3-(2-(2-chloro-5-fluoro-3,4-dihydroxyphenyl)-2-(4-(2-((4-hydroxybenzyl)amino)-2-oxoethyl)-2,3-dioxopiperazine-1-carboxamido)acetamido)-7-fluoro-2-hydroxy-3,4-dihydro-2H-benzo[e][1,2]oxaborinine-8-carboxylic acid] | – | > 128 | – | 8 to 16 (≈ 10.7 to 21.5 µM) | > 250 | – | – | – | – | – | –
4 | O=C(NCCCN1CCN(C(=O)NC(C(=O)N[C@H]2Cc3ccc(F)c(C(=O)O)c3OB2O)c2cc(F)c(O)c(O)c2Cl)C1=O)c1ccncc1 (stereo partly drawn) [Example 256, (3R)-3-(2-(2-chloro-5-fluoro-3,4-dihydroxyphenyl)-2-(3-(3-(isonicotinamido)propyl)-2-oxoimidazolidine-1-carboxamido)acetamido)-7-fluoro-2-hydroxy-3,4-dihydro-2H-benzo[e][1,2]oxaborinine-8-carboxylic acid] | < 1 | < 1 | – | < 1 | > 250 | – | < 1 | – | > 64 | 16 to 32 (≈ 22.3 to 44.6 µM) | > 64
5 | O=C(O)c1cccc2c1OB(O)[C@@H](NC(=O)[C@@H](NC(=O)c1cnc3n(c1=O)CCS3)c1ccc(P(=O)(O)O)cc1)C2 (single isomer, unassigned) [Example 196] | – | – | 16 to 32 (≈ 26.7 to 53.3 µM) | – | – | 16 to 32 (≈ 26.7 to 53.3 µM) | – | 16 to 32 (≈ 26.7 to 53.3 µM) | – | – | –
6 | O=C(NCCN1CCN(C(=O)N[C@@H](C(=O)N[C@H]2Cc3ccc(F)c(C(=O)O)c3OB2O)c2cc(F)c(O)c(O)c2Cl)C(=O)C1=O)Nc1cccnc1 [Example 222, (R)-3-((R)-2-(2-chloro-5-fluoro-3,4-dihydroxyphenyl)-2-(2,3-dioxo-4-(2-(3-(pyridin-3-yl)ureido)ethyl)piperazine-1-carboxamido)acetamido)-7-fluoro-2-hydroxy-3,4-dihydro-2H-benzo[e][1,2]oxaborinine-8-carboxylic acid] | < 1 | 32 to 64 (≈ 42.9 to 85.8 µM) | > 64 | 2 to 4 (≈ 2.68 to 5.36 µM) | > 250 | 16 to 32 (≈ 21.5 to 42.9 µM) | < 1 | > 64 | – | – | –
7 | CCN1CCN(C(=O)NC(C(=O)N[C@H]2Cc3cccc(C(=O)O)c3OB2O)c2ccc(P(=O)(O)O)c(F)c2O)C(=O)C1=O (stereo partly drawn) [Example 198, (3R)-3-(2-(4-ethyl-2,3-dioxopiperazine-1-carboxamido)-2-(3-fluoro-2-hydroxy-4-phosphonophenyl)acetamido)-2-hydroxy-3,4-dihydro-2H-benzo[e][1,2]oxaborinine-8-carboxylic acid] | – | – | 4 to 8 (≈ 6.43 to 12.9 µM) | – | – | < 1 | – | 1 to 2 (≈ 1.61 to 3.21 µM) | – | – | –
8 | CN(CCN1CCN(C(=O)N[C@@H](C(=O)N[C@H]2Cc3ccc(F)c(C(=O)O)c3OB2O)c2cc(F)c(O)c(O)c2Cl)C(=O)C1=O)Cc1nccs1 [Example 200, (R)-3-((R)-2-(2-chloro-5-fluoro-3,4-dihydroxyphenyl)-2-(4-(2-(methyl(thiazol-2-ylmethyl)amino)ethyl)-2,3-dioxopiperazine-1-carboxamido)acetamido)-7-fluoro-2-hydroxy-3,4-dihydro-2H-benzo[e][1,2]oxaborinine-8-carboxylic acid] | < 1 | < 1 | > 64 | < 1 | > 250 | 4 to 8 (≈ 5.43 to 10.9 µM) | < 1 | 16 to 32 (≈ 21.7 to 43.4 µM) | – | – | –
9 | O=C(O)c1cccc2c1OB(O)[C@@H](NC(=O)[C@H](NC(=O)c1cnc3n(c1=O)CCS3)c1ccc(P(=O)(O)O)cc1)C2 (single isomer, unassigned) [Example 197] | – | – | 16 to 32 (≈ 26.7 to 53.3 µM) | – | – | 16 to 32 (≈ 26.7 to 53.3 µM) | – | 16 to 32 (≈ 26.7 to 53.3 µM) | – | – | –
10 | O=C(NCCCN1CCN(C(=O)NC(C(=O)N[C@H]2Cc3ccc(F)c(C(=O)O)c3OB2O)c2cc(F)c(O)c(O)c2Cl)C(=O)C1=O)c1cccc(O)c1 (stereo partly drawn) [Example 204, (3R)-3-(2-(2-chloro-5-fluoro-3,4-dihydroxyphenyl)-2-(4-(3-(3-hydroxybenzamido)propyl)-2,3-dioxopiperazine-1-carboxamido)acetamido)-7-fluoro-2-hydroxy-3,4-dihydro-2H-benzo[e][1,2]oxaborinine-8-carboxylic acid] | < 1 | < 1 | > 64 | 2 to 4 (≈ 2.63 to 5.26 µM) | – | 16 to 32 (≈ 21.1 to 42.1 µM) | < 1 | > 64 | – | – | –
11 | O=C(NCCN1CCN(C(=O)NC(C(=O)N[C@H]2Cc3ccc(F)c(C(=O)O)c3OB2O)c2cc(F)c(O)c(O)c2Cl)C1=O)Nc1cccc(O)c1 (stereo partly drawn) [Example 249, (3R)-3-(2-(2-chloro-5-fluoro-3,4-dihydroxyphenyl)-2-(3-(2-(3-(3-hydroxyphenyl)ureido)ethyl)-2-oxoimidazolidine-1-carboxamido)acetamido)-7-fluoro-2-hydroxy-3,4-dihydro-2H-benzo[e][1,2]oxaborinine-8-carboxylic acid] | < 1 | < 1 | – | 2 to 4 (≈ 2.73 to 5.46 µM) | – | – | < 1 | – | > 64 | 16 to 32 (≈ 21.8 to 43.7 µM) | > 64
12 | CN(CCN1CCN(C(=O)N[C@@H](C(=O)N[C@H]2Cc3ccc(F)c(C(=O)O)c3OB2O)c2cc(F)c(O)c(O)c2Cl)C(=O)C1=O)Cc1cncc(O)c1 [Example 208, (R)-3-((R)-2-(2-chloro-5-fluoro-3,4-dihydroxyphenyl)-2-(4-(2-(((5-hydroxypyridin-3-yl)methyl)(methyl)amino)ethyl)-2,3-dioxopiperazine-1-carboxamido)acetamido)-7-fluoro-2-hydroxy-3,4-dihydro-2H-benzo[e][1,2]oxaborinine-8-carboxylic acid] | < 1 | < 1 | > 64 | < 1 | – | 4 to 8 (≈ 5.36 to 10.7 µM) | < 1 | 16 to 32 (≈ 21.4 to 42.8 µM) | – | – | –
